Literature values as cited in patent US12569575B2, “Radiopaque particle compositions and uses thereof” (GUSTAVE ROUSSY TRANSFERT, priority 2021, dated 2026).
In brackets after ≈: the same amount, converted by molar mass. Counter-ions that a name gives are not always drawn. Like-named read-outs stand apart in the source and are kept apart here. Values belong to the compound of their own block, whether it stands above or below them.

Details: for Solubility in DMSO: solvent DMSO

- Solubility in DMSO: 77 mg/mL (≈ 199 mM)
SMILES: CNC(=O)c1ccccc1Sc1ccc2c(/C=C/c3ccccn3)n[nH]c2c1 [Axitinib]

- Solubility in DMSO: 18 mg/mL
SMILES: COc1cc2nccc(Oc3ccc(NC(=O)C4(C(=O)Nc5ccc(F)cc5)CC4)cc3)c2cc1OC [Cabozantinib malate]

- Solubility in DMSO: >5.6 mg/mL
- Solubility in Water (solvent water): 10 mg/mL
SMILES: C=CC(=O)Nc1cc2c(Nc3ccc(F)c(Cl)c3)ncnc2cc1OCCCN1CCOCC1 [Canertinib diHCl]

- Solubility in DMSO: 20 mg/mL (≈ 44.8 mM)
SMILES: COc1cc2ncnc(Nc3ccc(F)c(Cl)c3)c2cc1OCCCN1CCOCC1 [Gefitinib]

- Solubility in DMSO: >95 mg/mL
- Solubility in Water (solvent water): <1.2 mg/mL
SMILES: Cc1ccc(NC(=O)c2ccc(CN3CCN(C)CC3)cc2)cc1Nc1nc(-c2cccnc2)cs1 [Masitinib]

- Solubility in DMSO: 97 mg/mL (≈ 201 mM)
SMILES: CNC(=O)c1cc(Oc2ccc(NC(=O)Nc3ccc(Cl)c(C(F)(F)F)c3)c(F)c2)ccn1 [Regorafenib]

- Solubility in DMSO: 92 mg/mL (≈ 198 mM)
SMILES: CNC(=O)c1cc(Oc2ccc(NC(=O)Nc3ccc(Cl)c(C(F)(F)F)c3)cc2)ccn1 [Sorafenib]

- Solubility in DMSO: 85 mg/mL
- Solubility in Water (solvent water): 10 mg/mL
SMILES: Clc1ccc(Nc2nnc(Cc3ccncc3)c3ccccc23)cc1 [Vatalanib diHCl]

Second part, the compound before the results:

SMILES: COc1cc(Nc2c(C#N)cnc3cc(OCCCN4CCN(C)CC4)c(OC)cc23)c(Cl)cc1Cl [Bosutinib]
- Solubility in DMSO: 100 mg/mL (≈ 189 mM)

SMILES: Cc1nc(Nc2ncc(C(=O)Nc3c(C)cccc3Cl)s2)cc(N2CCN(CCO)CC2)n1 [Dasatinib]
- Solubility in DMSO: 98 mg/mL (≈ 201 mM)

SMILES: CN1CCN(c2ccc3nc(-c4c(N)c5c(F)cccc5[nH]c4=O)[nH]c3c2)CC1 [Dovitinib]
- Solubility in DMSO: 40 mg/mL (≈ 102 mM)

SMILES: COc1cccc2c1C(=O)c1c(O)c3c(c(O)c1C2=O)C[C@@](O)(C(=O)CO)C[C@@H]3O[C@H]1C[C@H](N)[C@H](O)[C@H](C)O1 [Doxorubicin HCl]
- Solubility in DMSO: 100 mg/mL

SMILES: COc1cccc2c1C(=O)c1c(O)c3c(c(O)c1C2=O)C[C@@](O)(C(=O)CO)C[C@@H]3O[C@H]1C[C@H](N)[C@@H](O)[C@H](C)O1 [Epirubicin HCl]
- Solubility in DMSO: 10 mg/mL
- Solubility in Water (solvent water): 10 mg/mL

SMILES: C#Cc1cccc(Nc2ncnc3cc(OCCOC)c(OCCOC)cc23)c1 [Erlotinib HCl]
- Solubility in DMSO: 20 mg/mL

SMILES: Nc1ccn([C@@H]2O[C@H](CO)[C@@H](O)C2(F)F)c(=O)n1 [Gemcitabine]
- Solubility in DMSO: 5 mg/mL (≈ 19 mM)
- Solubility in Water (solvent water): 25 mg/mL (≈ 95 mM)

SMILES: CC(=O)[C@]1(O)Cc2c(O)c3c(c(O)c2[C@@H](O[C@H]2C[C@H](N)[C@H](O)[C@H](C)O2)C1)C(=O)c1ccccc1C3=O [Idarubicin HCl]
- Solubility in DMSO: 10 mg/mL
- Solubility in Water (solvent water): 1 mg/mL

SMILES: CS(=O)(=O)CCNCc1ccc(-c2ccc3ncnc(Nc4ccc(OCc5cccc(F)c5)c(Cl)c4)c3c2)o1.Cc1ccc(S(=O)(=O)O)cc1.Cc1ccc(S(=O)(=O)O)cc1 [Lapatinib toluene-sulfonate]
- Solubility in DMSO: 200 mg/mL

SMILES: C[C@]12O[C@H](C[C@]1(O)CO)n1c3ccccc3c3c4c(c5c6ccccc6n2c5c31)CNC4=O [Lestaurtinib]
- Solubility in DMSO: 44 mg/mL (≈ 100 mM)

SMILES: COc1cc2nccc(Oc3ccc(NC(=O)NC4CC4)c(Cl)c3)c2cc1C(N)=O [Levatinib mesylate]
- Solubility in DMSO: 9 mg/mL

SMILES: Cc1cn(-c2cc(NC(=O)c3ccc(C)c(Nc4nccc(-c5cccnc5)n4)c3)cc(C(F)(F)F)c2)cn1 [Nilotinib]
- Solubility in DMSO: 50 mg/mL (≈ 94.4 mM)

SMILES: Cc1ccc(Nc2nccc(N(C)c3ccc4c(C)n(C)nc4c3)n2)cc1S(N)(=O)=O [Pazopanib]
- Solubility in DMSO: 95 mg/mL (≈ 217 mM)

SMILES: CCN(CC)CCNC(=O)c1c(C)[nH]c(/C=C2\C(=O)Nc3ccc(F)cc32)c1C [Sunitinib]
- Solubility in Water (in citrate buffer): 2 mg/mL (≈ 5.02 mM)
- Solubility in DMSO: 100 mg/mL (≈ 251 mM)

SMILES: COc1cc2nc(N3CCN(C(=O)C4CCCO4)CC3)nc(N)c2cc1OC (centres unmarked) [Terazosin]
- Solubility in Water (solvent water): 20 mg/mL (≈ 51.6 mM)

SMILES: COc1cc2c(Nc3ccc(Br)cc3F)ncnc2cc1OCC1CCN(C)CC1 [Vandetanib]
- Solubility in Water (in pH 6.5): 5 mg/mL (≈ 10.5 mM)
- Solubility in DMSO: 30 mg/mL (≈ 63.1 mM)
